The text below walks through data of patent US9393187B2, “Peptide compounds that inhibit neuronal exocytosis” (LUBRIZOL ADVANCED MATERIALS, INC., priority 2012, dated 2016).

For the test, the system named is human neuroblastoma cell line. The test can be described thus: Release of noradrenaline induced by TPA/Ionomycin in a neuroblastoma cell line, quantified by ELISA. In kind it is cell-based. Conditions: TPA/ION control = 100. The method, then:
Quantification of the Release of Noradrenaline Induced by TPA/Ionomycin in a Neuroblastoma Cell Line by ELISA
The induction of the release of noradrenaline with TPA (12-O-tetradecanoylphorbol-13-acetate)/lonomycin enables direct measurement of neuronal exocytosis. For the study of the inhibitory effect of the compounds of the invention on the release of noradrenaline, cells of a human neuroblastoma cell line were pre-incubated (1×10^6 cells/well) for 60 minutes with the compound of the invention (1 μM, 10 μM, 100 μM, 500 μM or 1 mM compounds), and afterwards the release of noradrenaline was induced. The release of the noradrenaline neurotransmitter was induced by an 8 minute pre-treatment with a solution of 12-O-tetradecanoylphorbol-13-acetate (TPA) 100 nM, which mobilized the intracellular vesicles which contained the neuro-transmitter; followed by a 5 minute incubation with TPA/Ionomycin (100 nM/10 μM), which induced the release of the neurotransmitter contained in these vesicles. […] For this, absorbance at 405 nm was measured in Thermo Scientific Multiskan Ascent equipment.
The blocking of the SNARE complex by the compounds of the invention lead to an inhibition of neuronal exocytosis and therefore, a decrease in the levels of released noradrenaline (Table 6).

With Ac-NDIAQM-NH2 [Ac-SEQ ID NO:30-NH2], the “% RELEASED NORADRENALINE Average” value (dose 1 μM) was found to be 99.59%; the “% RELEASED NORADRENALINE Average” value (dose 10 μM) worked out at 94.48%; the “% RELEASED NORADRENALINE Average” value (dose 100 μM) is 74.79%; the “% RELEASED NORADRENALINE Average” value (dose 500 μM) came to 48.07%; the “% RELEASED NORADRENALINE Average” value (dose 1000 μM) amounted to 41.05%.
Ac-RDFDQW-NH2 [Ac-SEQ ID NO:31-NH2]: the “% RELEASED NORADRENALINE Average” value (dose 10 μM) is 83.33%, the “% RELEASED NORADRENALINE Average” value (dose 100 μM) was 69.07% and the “% RELEASED NORADRENALINE Average” value (dose 1000 μM) is listed as 31.72%.
